Starred links: 1 amine or outer side, 2 acyl side, 3 side chain; linkers in the order of their positions; H or OH if unused. Non-standard residues stand in square brackets, D forms with d. No end group written: not given here. *: point of attachment. βGlcAc4 = CC(=O)OC[C@H]1O[C@@H](*)[C@H](OC(C)=O)[C@@H](OC(C)=O)[C@@H]1OC(C)=O; Tyr(Me) = O-methyl Tyr, COc1ccc(C[C@H](N[*:1])C(=O)[*:2])cc1; Tyr(3,5-I2) = N[C@@H](Cc1cc(I)c(O)c(I)c1)C(=O)O; dGla = N[C@H](CC(C(=O)O)C(=O)O)C(=O)O; Dap = NC[C@H](N)C(=O)O; βAla = NCCC(=O)O
Tests used:
MCF-7 cells = assay: MCF-7 cell stimulation (cell growth) assay, cell counts by trypan blue exclusion; type: cell-based, human; settings: for reversal of leptin-induced cell stimulation: leptin present; for antagonistic activity on leptin-induced MCF-7 cell proliferation: in the presence of exogenous leptin; for agonistic activity on MCF-7 cells: without leptin; for Relative stimulation (%) of MCF-7 cells, No leptin added: no exogenous leptin; for MCF-7 cell count increase: no leptin
Text: (§1) For the evaluation of the biological activity of the synthesized leptin Site III peptide fragments, human cell lines were selected in which the ObR expression level is known. Two ObR-positive human cell models were used: MCF-7 breast cancer cells and DU-45 prostate cancer cells. Both cell lines express ObR, and leptin and leptin analogues stimulate their growth (C. Garofalo, et al., Clin. Cancer Res., 2004, 10, 6466-6475; C. Garofalo, et al., Clin. Cancer Res., 2006, 12, 1447-1453). Normal mammary epithelial MCF-10 cells lacking ObR were used as a negative control (X. Hu, et al., J. Natl. Cancer Inst., 2002, 94, 1704-1711).
Biological activity of the Site III peptides was assayed as follows. MCF-7 cells were stimulated with 6 nM full-sized leptin. The smaller leptin fragments and analogs were added to the cell culture at a concentration of 10 nM, 100 nM or 1 μM. Leptin at […] concentration stimulated MCF-7 cell growth by approximately 40%, in line with previous observations (C. Garofalo, et al., Clin. Cancer Res., 2004, 10, 6466-6475). All Site III peptides bound to the extracellular domain of ObR as documented by dot-blot or Western-blot analysis. […] In fact, it reversed leptin induced stimulation of MCF-7 cells at as low as 10 nM peptide concentration, with an additional 50% reduction in cell counts at 1 μM. When the assay was run at a more reliably measurable 1 μM peptide concentration, a consistent 6% decrease in cell numbers could be observed compared to the leptin only samples. In summary, in the presence of exogenously added full-sized leptin these assays verified the strong antagonist activity of the Site III Ala,Ala mutant.
(§2) The cell stimulation activity of the Site III peptides was assayed as follows. Human leptin was purchased from R&D Systems and used at a concentration of 100 ng/mL (approximately 6 nM). MCF-7 and DU-45 cells naturally expressing ObR were grown in a standard medium DMEM:F12 plus 5% fetal bovine serum. MCF-10 was grown in serum-free mammalian epithelial growth medium supplemented with 100 ng/mL cholera toxin. Seventy percent confluent cultures were synchronized in serum-free medium (DMEM plus 10 μM FeSO4, plus 0.5% albumin) for 24 h and then treated with leptin and/or peptides (different doses) for 5 days. Cell counts before and after treatment were determined by counting the cells using trypan blue exclusion. All assays were conducted in triplicate and repeated at least twice.

[1] = tested on: astrocytes, brain capillary endothelial cells; assay: In vitro model of blood-brain-barrier penetration (Transwell cell layers); type: in vitro ADME, human; settings: 0.1 mM peptide in upper compartment
Text: To confirm the ability of the E1 peptides to cross the blood-brain barrier, penetration of the protected (E1Ac) and free (E1Free) glycopeptides across confluent layers of astrocytes, brain endothelial cells, or a double layer of these two cell types was examined, in comparison with the Site III Ala,Ala non-glycosylated analog.
A confluent monolayer of human astrocytes or brain capillary endothelial cells, or a dual layer of both cell types (astrocytes first, followed by endothelial cells) were grown at 37° C. on polycarbonate filters (Costar, Transwell, 0.4 μm) that were pretreated with collagen. Under these conditions, the endothelial cells retain the characteristics of the blood-brain-barrier, which include complex tight junctions, low rates of pinocytosis and low enzyme levels (S. Lundquist, et al., Pharm. Res., 2002, 19, 976-981). A 0.1 mM solution of each of E1Ac, E1Free or Site III Ala,Ala was added to the upper compartment of the Transwell plates. The plates were then placed back in the incubator and samples were taken from the bottom compartments at 0, 5, 10, 30, and 120 minute intervals. The identity and quantity of peptides that had penetrated through the cell layers were subsequently analyzed by RP-HPLC and MALDI-MS.

DU-45 cells = assay: DU-45 cell stimulation (proliferation) assay; type: cell-based, human
Text: as §1
as §2, with “All assays were conducted in triplicate and repeated at least twice.” left out

MCF-10 cells = assay: MCF-10 control cell proliferation assay (cells lacking ObR); type: cell-based, human; settings: for effect on the proliferation of MCF-10 cells: control cell line lacking ObR
Text: as §1, §2

ObR extracellular domain = target: T1, ObR extracellular domain (Homo sapiens, UniProt P48357); assay: Dot-blot and ELISA-type solid-phase binding assay; settings: dot-blot, Western-blot or ELISA; 10 and 20 μg peptide load in ELISA
T1 construct: human IgG Fc-conjugated ObR extracellular domain (R&D Systems); purchased R&D Systems
T1 sequence (P48357 22-839 limits assumed): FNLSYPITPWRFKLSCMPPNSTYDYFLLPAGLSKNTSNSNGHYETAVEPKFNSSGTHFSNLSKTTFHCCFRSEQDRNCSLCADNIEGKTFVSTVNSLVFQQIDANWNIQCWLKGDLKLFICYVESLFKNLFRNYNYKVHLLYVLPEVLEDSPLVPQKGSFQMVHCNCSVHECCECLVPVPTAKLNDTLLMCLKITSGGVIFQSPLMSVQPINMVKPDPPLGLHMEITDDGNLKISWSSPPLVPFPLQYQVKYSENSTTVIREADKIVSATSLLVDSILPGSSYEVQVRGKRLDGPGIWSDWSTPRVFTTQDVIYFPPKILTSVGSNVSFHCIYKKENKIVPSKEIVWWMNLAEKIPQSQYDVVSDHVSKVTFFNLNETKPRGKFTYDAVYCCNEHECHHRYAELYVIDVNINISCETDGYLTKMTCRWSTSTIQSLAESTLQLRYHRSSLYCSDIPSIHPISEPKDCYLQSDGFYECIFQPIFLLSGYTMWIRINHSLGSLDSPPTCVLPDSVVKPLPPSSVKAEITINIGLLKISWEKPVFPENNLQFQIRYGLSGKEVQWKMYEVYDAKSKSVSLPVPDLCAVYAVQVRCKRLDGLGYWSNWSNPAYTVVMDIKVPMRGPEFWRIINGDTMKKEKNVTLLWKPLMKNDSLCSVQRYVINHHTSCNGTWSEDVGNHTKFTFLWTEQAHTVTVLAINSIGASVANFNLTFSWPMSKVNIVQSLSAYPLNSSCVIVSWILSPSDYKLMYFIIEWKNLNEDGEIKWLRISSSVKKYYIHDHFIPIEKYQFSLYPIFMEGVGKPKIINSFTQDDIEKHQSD
Description: For dot-blot and ELISA assays, the leptin fragments were dissolved in electroblot transfer buffer (25 mM Tris and […] buffer containing 20% methanol) and were applied to either a nitrocellulose membrane or dried upon ELISA plates (Otvos, L., Jr., and Szendrei, G. I. (1996) Enzyme-linked immunosorbent assay of peptides. In: Neuropeptide Protocols (G. B. Irvine and C. H. Williams, eds.). Humana Press, Totowa, N.J., pp. 269-275). The solid surfaces were blocked with 5% BSA in a PBS-0.5% Tween 20 buffer (PBST) for 3 hours at room temperature and were subsequently incubated with 10 μg/mL solution of human IgG Fc-conjugated ObR extracellular domain (R&D Systems) dissolved in Tris-buffered saline-0.1% Tween 20 buffer (TBST) containing 1% bovine serum albumin (BSA) for 1 hour. A monoclonal goat antibody (Santa Cruz Biotechnology), specific for the N-terminus of human ObR, was added to the assay mixture, followed by addition of a horseradish peroxidase(HRP)-conjugated anti-goat IgG donkey antibody for the dot-blot assay, and HRP-conjugated anti-goat Fc mouse antibody for ELISA assay (used at a 1:15,000 dilution in PBST and 1% BSA). Between reagents, the solid surfaces were washed extensively with PBST. After washing with PBST, the membrane was treated with a chemiluminescence luminol oxidizer (NEN) for 1 min. The resultant chemiluminescence was exposed to a X-Omat blue XB-1 film (Kodak) for 10 seconds, and the exposed film was developed. The ELISA was developed using an HRP ELISA kit including tetramethylbenzidine as a substrate and sulfuric acid as a stop solution. Optical absorbance values were read at 490 nm using a microplate reader.

Gly-Tyr(I2)-Ser-Thr-D-Gla-Val-Val-D-Ala-Leu-Ser-Arg-Leu [F2]
reversal of leptin-induced cell stimulation (MCF-7 cells; 1 μM peptide): 15%
Relative stimulation (%) of MCF-7 cells, With 10 nM leptin (MCF-7 cells; 1 μM peptide, with 10 nM leptin): −15%
antagonistic activity on leptin-induced MCF-7 cell proliferation (MCF-7 cells): antagonists
agonistic activity on MCF-7 cells (MCF-7 cells): agonists

Gly-Tyr(I2)-Ser-Thr-Glu-Val-Va1-βAla-Leu-Ser-Arg-Leu (G[Tyr(3,5-I2)]STEVV[βAla]LSRL-NH2) [A4]
Relative stimulation (%) of MCF-7 cells, No leptin added (MCF-7 cells; 1 μM peptide): +102%

Leptin: Human leptin purchased from R&D Systems; full-length sequence SEQ ID NO:1
stimulation of MCF-7 cell growth (MCF-7 cells; leptin at 10 nM): approximately 40%

SGYAAEVVALSRLQGS-NH2 [Site III Ala,Ala, Ser-Gly-Tyr-Ala-Ala-Glu-Val-Val-Ala-Leu-Ser-Arg-Leu-Gln-Gly-Ser]
earliest time point at which peptide was detected in the bottom compartment [1]: 30 min

SGYSTEVVALSRLQGS [Site III 117-132]
reduction in leptin-induced cell growth (MCF-7 cells; 1 μM peptide, in the presence of 10 nM leptin): 21%
agonistic activity on MCF-7 cells (MCF-7 cells): did not noticeably influence the cell growth
effect on the proliferation of DU-45 cells (DU-45 cells): no effect
effect on the proliferation of MCF-10 cells (MCF-10 cells; listed as Site III peptide): did not demonstrate a major effect
effect on the proliferation of MCF-10 cells (MCF-10 cells; listed as site III fragment): no effect

Tyr(I2)-Serβ(GlcAc4)-Thr-Glu-Val-Val-Ala-Leu-Ser-Arg-Leu-Dap(Ac) ([Tyr(3,5-I2)]S(βGlcAc4)TEVVALSRL[Dap](Ac)-NH2) [E1Ac]
MCF-7 cell count increase (MCF-7 cells; 100 nM peptide): 54%
further increase of leptin-induced cell stimulation (MCF-7 cells; 1000 nM peptide, in the presence of 6 nM leptin): 17%
MCF-7 cell count increase (MCF-7 cells; 1000 nM peptide): 101%
overall agonist character on cells expressing ObR (MCF-7 cells; in the presence and absence of leptin): full agonists
activity on MCF-10 normal mammary epithelial cells (MCF-10 cells; 100 nM and 1000 nM peptide): inactive
binding to the extracellular domain of ObR (ObR extracellular domain): bound

Tyr(Me)-Ser-Thr-D-Gla-Val-Val-D-Ala-Leu-Ser-Arg-Leu ([Tyr(Me)]ST[dGla]VV[dA]LSRL-NH2) [D12]
reversal of leptin-induced cell stimulation (MCF-7 cells; 1 μM peptide): 43%
antagonistic activity on leptin-induced MCF-7 cell proliferation (MCF-7 cells): antagonists
agonistic activity on MCF-7 cells (MCF-7 cells): agonists

Tyr(Me)-Ser-Thr-Glu-Val-Val-βAla-Leu-Ser-Arg-Leu ([Tyr(Me)]STEVV[βAla]LSRL-NH2) [A11]
Relative stimulation (%) of MCF-7 cells, No leptin added (MCF-7 cells; 1 μM peptide): +19%
antagonistic activity on leptin-induced MCF-7 cell proliferation (MCF-7 cells): basically inactive

pyrrhocoricin: negative control antibacterial peptide with Pro-Arg-Pro repeats, equal in size with the leptin fragments (VDKGSYLPRPTPPRPIYNRN) [reference compound]
binding to the extracellular domain of ObR (ObR extracellular domain): did not bind

— patent US8470772B2, “Leptin agonist and methods of use” (Temple University—Of The Commonwealth System of Higher …, priority 2008, dated 2013)
